Patent US8895585B2, “Nicotinamide derivative or salt thereof” (FUJIFILM Corporation, priority 2010, dated 2014)

Biological target: T1, glutathione S-transferase (GST)-fused full-length human Syk protein (Homo sapiens, UniProt P43405)
T1 construct: (GST)-fused full-length human Syk protein; GST (glutathione S-transferase); purchased Carna Biosciences
Experiment: Syk enzyme assay
Type: biochemical
Conditions: Syk enzyme assay, Test Example 1; read-out: IC50 of Syk-inhibitory activity
How it was run: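 GST-tagged full-length human Syk (baculovirus) preincubated with compound 15 min at room temperature (pH 7.0, 10 mM MgCl2), then reacted 40 min with 0.4 μM biotinylated peptide substrate and 27 μM ATP (final). Phosphorylation read by HTRF (615/665 nm) after EDTA stop; IC50 reported.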

| Structure (SMILES) | IC50 [nM] |
| --- | --- |
| NC(=O)c1cc(F)c(NC2CCCCC2N)nc1Nc1cncc(C2CCCC2)c1 (centres unmarked) [Example 002-094] | 10 to 50 |
| NC(=O)c1cc(F)c(NC2CCCCC2N)nc1Nc1cncc(C2=CCCCC2)c1 (centres unmarked) [Example 002-095] | < 10 |
| NC(=O)c1cc(F)c(NC2CCCCC2N)nc1Nc1cncc(C2CCCCC2)c1 (centres unmarked) [Example 002-096] | 10 to 50 |
| COCCOc1nccc2c(Nc3nc(NC4CCCCC4N)c(F)cc3C(N)=O)cccc12 (centres unmarked) [Example 002-102] | 10 to 50 |
| COCCn1c(=O)ccc2cc(Nc3nc(NC4CCCCC4N)c(F)cc3C(N)=O)cnc21 (centres unmarked) [Example 002-116] | 50 to 100 |
| CCOc1nc2ccc(Nc3nc(NC4CCCCC4N)c(F)cc3C(N)=O)cc2nc1OCC (centres unmarked) [Example 002-120] | < 10 |
| COCCOc1nc2ccc(Nc3nc(NC4CCCCC4N)c(F)cc3C(N)=O)cc2nc1OCCOC (centres unmarked) [Example 002-121] | 100 to 1000 |
| CC1CN(c2ccc(Nc3nc(NC4CCCCC4N)c(F)cc3C(N)=O)cn2)CC(C)O1 (centres unmarked) [Example 002-127] | 10 to 50 |
| NCCNCCNc1nc(Nc2ccc3ncccc3c2)c(C(N)=O)cc1F [Example 002-128] | 100 to 1000 |
| NCCNCCNc1nc(Nc2ccnc(-n3nccn3)c2)c(C(N)=O)cc1F [Example 002-129] | 100 to 1000 |
| NCCNCCNc1nc(Nc2ccnc(-n3cncn3)c2)c(C(N)=O)cc1F [Example 002-130] | 100 to 1000 |
| COc1ccccc1-c1cc(Nc2nc(NC3CCCCC3N)c(F)cc2C(N)=O)ccn1 (centres unmarked) [Example 002-132] | 10 to 50 |
| NC(=O)c1cc(F)c(NC2CCCCC2N)nc1Nc1ccnc(-c2ccc(F)cc2F)c1 (centres unmarked) [Example 002-133] | < 10 |
| Cc1ncc(Nc2nc(NC3CCCCC3N)c(F)cc2C(N)=O)cc1-n1cccn1 (centres unmarked) [Example 002-135] | 10 to 50 |
| COc1ccc(-c2cc(Nc3nc(NC4CCCCC4N)c(F)cc3C(N)=O)ccn2)c(OC)c1 (centres unmarked) [Example 002-136] | 50 to 100 |
| Cc1ncc(Nc2nc(NC3CCCCC3N)c(F)cc2C(N)=O)cc1-n1cncn1 (centres unmarked) [Example 002-138] | 50 to 100 |

More lines, now with the values ahead:

| IC50 [nM] | Structure (SMILES) |
| --- | --- |
| < 10 | CCOCCOCCOc1ccc2ccc(Nc3nc(NC4CCCCC4N)c(F)cc3C(N)=O)cc2n1 (centres unmarked) [Example 002-093] |
| < 10 | COCC(C)Oc1ccc2cc(Nc3nc(NC4CCCCC4N)c(F)cc3C(N)=O)ccc2n1 (centres unmarked) [Example 002-098] |
| < 10 | COC(C)CCOc1ccc2cc(Nc3nc(NC4CCCCC4N)c(F)cc3C(N)=O)ccc2n1 (centres unmarked) [Example 002-099] |
| < 10 | COc1ccc2cc(Nc3nc(NC4CCCCC4N)c(F)cc3C(N)=O)ccc2n1 (centres unmarked) [Example 002-101] |
| < 10 | CCOc1ccc2cc(Nc3nc(NC4CCCCC4N)c(F)cc3C(N)=O)ccc2n1 (centres unmarked) [Example 002-103] |
| < 10 | CCCOc1ccc2cc(Nc3nc(NC4CCCCC4N)c(F)cc3C(N)=O)ccc2n1 (centres unmarked) [Example 002-104] |
| 10 to 50 | CC(C)COc1ccc2cc(Nc3nc(NC4CCCCC4N)c(F)cc3C(N)=O)ccc2n1 (centres unmarked) [Example 002-105] |
| 50 to 100 | CCC(C)COc1ccc2cc(Nc3nc(NC4CCCCC4N)c(F)cc3C(N)=O)ccc2n1 (centres unmarked) [Example 002-106] |
| < 10 | CCOCCOc1ccc2cc(Nc3nc(NC4CCCCC4N)c(F)cc3C(N)=O)ccc2n1 (centres unmarked) [Example 002-107] |
| 10 to 50 | CCCCOCCOc1ccc2cc(Nc3nc(NC4CCCCC4N)c(F)cc3C(N)=O)ccc2n1 (centres unmarked) [Example 002-108] |
| 10 to 50 | CC(C)COCCOc1ccc2cc(Nc3nc(NC4CCCCC4N)c(F)cc3C(N)=O)ccc2n1 (centres unmarked) [Example 002-109] |
| 10 to 50 | CCCCOCCOCCOc1ccc2cc(Nc3nc(NC4CCCCC4N)c(F)cc3C(N)=O)ccc2n1 (centres unmarked) [Example 002-111] |
| < 10 | NC(=O)c1cc(F)c(NC2CCCCC2N)nc1Nc1ccc2nc(OCC3CCCO3)ccc2c1 (centres unmarked) [Example 002-112] |
| < 10 | COc1nc2ccc(Nc3nc(NC4CCCCC4N)c(F)cc3C(N)=O)cc2nc1OC (centres unmarked) [Example 002-119] |
| < 10 | CN1CCOc2nc3ccc(Nc4nc(NC5CCCCC5N)c(F)cc4C(N)=O)cc3nc21 (centres unmarked) [Example 002-122] |
| < 10 | CCc1nc2ccc(Nc3nc(NC4CCCCC4N)c(F)cc3C(N)=O)cc2nc1CC (centres unmarked) [Example 002-124] |
